From PubChem BioAssay AID180 (DTP/NCI, 2004)
“And” between values parts separate entries of the source, which are not always exact repeats. Identical values can stand only once.

System: BDF1 mice, Adenocarcinoma 755 s.c., tumor weight T/C
Assay: NCI In Vivo Anticancer Drug Screen. Data for tumor model Adenocarcinoma 755 (subcutaneous) in B6D2F1 (BDF1) mice
Conditions: endpoint: mean tumor weight, higher = larger tumour
Summary of the method: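 Readout: T/C, i.e. treated-group measurement over vehicle-control measurement. Endpoint is survival or tumor size in tumor-bearing mice given compound.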

[1] = dose: 25.0 mg/kg/injection, schedule: Q01DX011 (ip), vehicle: carboxymethylcellulose (CMC)
[2] = dose: 50.0 mg/kg/injection, schedule: Q01DX011 (ip), vehicle: carboxymethylcellulose (CMC)
[3] = dose: 30.0 mg/kg/injection, schedule: Q01DX011 (ip), vehicle: methylcellulose (MC)
[4] = dose: 60.0 mg/kg/injection, schedule: Q01DX011 (ip), vehicle: methylcellulose (MC)
[5] = dose: 120.0 mg/kg/injection, schedule: Q01DX011 (ip), vehicle: methylcellulose (MC)
[6] = dose: 240.0 mg/kg/injection, schedule: Q01DX011 (ip), vehicle: methylcellulose (MC)
[7] = dose: 15.0 mg/kg/injection, schedule: Q01DX011 (ip), vehicle: methylcellulose (MC)
[8] = dose: 62.0 mg/kg/injection, schedule: Q01DX011 (ip), vehicle: methylcellulose (MC)
[9] = dose: 25.0 mg/kg/injection, schedule: Q01DX011 (ip), vehicle: saline
[10] = dose: 50.0 mg/kg/injection, schedule: Q01DX011 (ip), vehicle: saline

CCOC(O)C(F)(F)F (stereo unspecified)
T/C (dose: 22.0 mg/kg/injection, schedule: Q01DX011 (ip), vehicle: methylcellulose (MC)): 110 % of control | T/C [1]: 83 % of control | T/C (dose: 44.0 mg/kg/injection, schedule: Q01DX011 (ip), vehicle: methylcellulose (MC)): 78 % of control | T/C [2]: 50 % of control | T/C (dose: 88.0 mg/kg/injection, schedule: Q01DX011 (ip), vehicle: methylcellulose (MC)): 30 % of control | T/C (dose: 100.0 mg/kg/injection, schedule: Q01DX011 (ip), vehicle: carboxymethylcellulose (CMC)): 32 % of control

NC(CCCC(N)C(=O)O)C(=O)O (stereo unspecified)
T/C (dose: 200.0 mg/kg/injection, schedule: Q01DX011 (ip), vehicle: other): 75 % of control | T/C (dose: 400.0 mg/kg/injection, schedule: Q01DX011 (ip), vehicle: other): 77 % of control | T/C (dose: 600.0 mg/kg/injection, schedule: Q01DX011 (ip), vehicle: other): 93 % of control

CC1CC(C)C(=O)C(C(=O)CC2CC(=O)NC(=O)C2)C1 (stereo unspecified)
T/C (dose: 125.0 mg/kg/injection, schedule: Q01DX011 (ip), vehicle: carboxymethylcellulose (CMC)): 67 % of control

CCCCn1cnc2c(SC(C)C)nc(N)nc21
T/C (dose: 1.56 mg/kg/injection, schedule: Q01DX011 (ip), vehicle: methylcellulose (MC)): 64 % of control | T/C (dose: 3.12 mg/kg/injection, schedule: Q01DX011 (ip), vehicle: methylcellulose (MC)): 57 % of control | T/C (dose: 6.25 mg/kg/injection, schedule: Q01DX011 (ip), vehicle: methylcellulose (MC)): 14 % of control and 24 % of control | T/C (dose: 12.5 mg/kg/injection, schedule: Q01DX011 (ip), vehicle: methylcellulose (MC)): 3 % of control and 8 % of control

Clc1cccc(CSc2ncnc3c2ncn3C2CCCCO2)c1 (stereo unspecified)
T/C [3]: 18 % of control | T/C (dose: 100.0 mg/kg/injection, schedule: Q01DX011 (ip), vehicle: methylcellulose (MC)): 6 % of control

NS(=O)(=O)c1ncc2[nH]cnc2n1
T/C (dose: 225.0 mg/kg/injection, schedule: Q01DX011 (ip), vehicle: carboxymethylcellulose (CMC)): 111 % of control | T/C (dose: 450.0 mg/kg/injection, schedule: Q01DX011 (ip), vehicle: carboxymethylcellulose (CMC)): 82 % of control

Cc1cccc(-c2c3ccccc3cc3c2ccc2ccccc23)c1
T/C [3]: 96 % of control | T/C [4]: 76 % of control | T/C [5]: 79 % of control | T/C [6]: 119 % of control

Cc1ccccc1Nc1cc(=S)nc(N)[nH]1
T/C [7]: 122 % of control | T/C (dose: 31.0 mg/kg/injection, schedule: Q01DX011 (ip), vehicle: methylcellulose (MC)): 91 % of control | T/C [8]: 92 % of control | T/C (dose: 250.0 mg/kg/injection, schedule: Q01DX011 (ip), vehicle: methylcellulose (MC)): 84 % of control

C[C@]12CCCC[C@@H]1CC[C@@H]1[C@@H]2[C@@](C)(O)C[C@@]2(C)[C@H]1CC[C@]2(C)O
T/C (dose: 300.0 mg/kg/injection, schedule: Q01DX011 (sc), vehicle: steriod suspending solution): 79 % of control

O=[N+]([O-])O.[Ga]
T/C (dose: 12.5 mg/kg/injection, schedule: Q01DX011 (ip), vehicle: saline): 20 % of control | T/C [9]: 24 % of control | T/C [10]: 7 % of control

Cn1c(N)c(N=O)c(=O)n(C)c1=O
T/C (dose: 175.0 mg/kg/injection, schedule: Q01DX011 (oral), vehicle: other): 99 % of control | T/C (dose: 250.0 mg/kg/injection, schedule: Q01DX011 (ip), vehicle: carboxymethylcellulose (CMC)): 81 % of control | T/C (dose: 350.0 mg/kg/injection, schedule: Q01DX011 (ip), vehicle: carboxymethylcellulose (CMC)): 28 % of control | T/C (dose: 350.0 mg/kg/injection, schedule: Q01DX011 (oral), vehicle: other): 80 % of control | T/C (dose: 1400.0 mg/kg/injection, schedule: Q01DX011 (oral), vehicle: methylcellulose (MC)): 105 % of control | T/C (dose: 2000.0 mg/kg/injection, schedule: Q01DX011 (oral), vehicle: other): 74 % of control | T/C (dose: 2800.0 mg/kg/injection, schedule: Q01DX011 (oral), vehicle: other): 118 % of control

Cc1nc2nncn2c(=O)[nH]1
T/C [9]: 67 % of control | T/C (dose: 75.0 mg/kg/injection, schedule: Q01DX011 (ip), vehicle: saline): 101 % of control | T/C (dose: 225.0 mg/kg/injection, schedule: Q01DX011 (ip), vehicle: saline): 84 % of control

Cc1cnc(SCc2ccc(Cl)cc2Cl)nc1N(C)C
T/C [8]: 55 % of control

CCC1OCCN1C(C)C (stereo unspecified)
T/C (dose: 12.0 mg/kg/injection, schedule: Q01DX011 (ip), vehicle: other): 118 % of control | T/C [1]: 57 % of control | T/C (dose: 25.0 mg/kg/injection, schedule: Q01DX011 (ip), vehicle: other): 109 % of control | T/C [9]: 84 % of control | T/C [2]: 33 % of control | T/C (dose: 50.0 mg/kg/injection, schedule: Q01DX011 (ip), vehicle: other): 223 % of control | T/C [10]: 29 % of control

C[C@@H]1CN(C(=O)CCOS(C)(=O)=O)[C@@H](C)CN1C(=O)CCOS(C)(=O)=O
T/C (dose: 4.0 mg/kg/injection, schedule: Q01DX011 (ip), vehicle: saline): 95 % of control | T/C (dose: 8.0 mg/kg/injection, schedule: Q01DX011 (ip), vehicle: saline): 65 % of control | T/C (dose: 9.4 mg/kg/injection, schedule: Q01DX011 (ip), vehicle: carboxymethylcellulose (CMC)): 104 % of control | T/C (dose: 15.0 mg/kg/injection, schedule: Q01DX011 (ip), vehicle: carboxymethylcellulose (CMC)): 61 % of control | T/C (dose: 16.0 mg/kg/injection, schedule: Q01DX011 (ip), vehicle: saline): 60 % of control | T/C (dose: 30.0 mg/kg/injection, schedule: Q01DX011 (ip), vehicle: carboxymethylcellulose (CMC)): 32 % of control | T/C (dose: 33.0 mg/kg/injection, schedule: Q01DX011 (ip), vehicle: carboxymethylcellulose (CMC)): 21 % of control | T/C (dose: 33.0 mg/kg/injection, schedule: Q01DX011 (ip), vehicle: saline): 52 % of control | T/C (dose: 37.5 mg/kg/injection, schedule: Q01DX011 (ip), vehicle: carboxymethylcellulose (CMC)): 59 % of control and 62 % of control | T/C [2]: 27 % of control | T/C [10]: 15 % of control | T/C (dose: 60.0 mg/kg/injection, schedule: Q01DX011 (ip), vehicle: carboxymethylcellulose (CMC)): 5 % of control | T/C (dose: 75.0 mg/kg/injection, schedule: Q01DX011 (ip), vehicle: carboxymethylcellulose (CMC)): 9 % of control and 15 % of control and 23 % of control | T/C (dose: 112.5 mg/kg/injection, schedule: Q01DX011 (ip), vehicle: carboxymethylcellulose (CMC)): 10 % of control | T/C (dose: 120.0 mg/kg/injection, schedule: Q01DX011 (ip), vehicle: carboxymethylcellulose (CMC)): 4 % of control

Cn1c(N)nc2nc[nH]c2c1=O
T/C (dose: 9.3 mg/kg/injection, schedule: Q01DX011 (ip), vehicle: methylcellulose (MC)): 79 % of control | T/C (dose: 18.7 mg/kg/injection, schedule: Q01DX011 (ip), vehicle: methylcellulose (MC)): 68 % of control | T/C (dose: 37.5 mg/kg/injection, schedule: Q01DX011 (ip), vehicle: methylcellulose (MC)): 29 % of control

CCOC(C)C(/C=N/NC(N)=S)=NNC(N)=S (stereo unspecified)
T/C (dose: 15.0 mg/kg/injection, schedule: Q01DX011 (ip), vehicle: saline): 49 % of control | T/C (dose: 30.0 mg/kg/injection, schedule: Q01DX011 (ip), vehicle: saline): 109 % of control | T/C (dose: 60.0 mg/kg/injection, schedule: Q01DX011 (ip), vehicle: saline): 117 % of control | T/C (dose: 120.0 mg/kg/injection, schedule: Q01DX011 (ip), vehicle: saline): 71 % of control

CC[N+]([O-])(CC)c1n(C)c2c(=O)n(C)c(=O)n(C)c2[n+]1[O-]
T/C [3]: 93 % of control | T/C [4]: 96 % of control | T/C [5]: 110 % of control | T/C [6]: 70 % of control

CC(C)Cn1cnc2c(SCc3ccc(Br)cc3)nc(N)nc21
T/C (dose: 50.0 mg/kg/injection, schedule: Q01DX011 (ip), vehicle: methylcellulose (MC)): 40 % of control | T/C (dose: 150.0 mg/kg/injection, schedule: Q01DX011 (ip), vehicle: methylcellulose (MC)): 4 % of control | T/C (dose: 200.0 mg/kg/injection, schedule: Q01DX011 (ip), vehicle: methylcellulose (MC)): 1 % of control | T/C (dose: 400.0 mg/kg/injection, schedule: Q01DX011 (ip), vehicle: methylcellulose (MC)): 2 % of control

CCOC(=O)C(Cc1ccc(N(CCCl)CCCl)cc1)NC=O (stereo unspecified)
T/C (dose: 5.0 mg/kg/injection, schedule: Q01DX011 (ip), vehicle: carboxymethylcellulose (CMC)): 75 % of control | T/C (dose: 10.0 mg/kg/injection, schedule: Q01DX011 (ip), vehicle: carboxymethylcellulose (CMC)): 43 % of control | T/C (dose: 20.0 mg/kg/injection, schedule: Q01DX011 (ip), vehicle: carboxymethylcellulose (CMC)): 48 % of control | T/C (dose: 40.0 mg/kg/injection, schedule: Q01DX011 (ip), vehicle: carboxymethylcellulose (CMC)): 3 % of control | T/C (dose: 80.0 mg/kg/injection, schedule: Q01DX011 (ip), vehicle: carboxymethylcellulose (CMC)): 6 % of control

O=C(Nc1ccc(C2=NCCN2)cc1)c1ccc(N=Nc2ccc(C(=O)Nc3ccc(C4=NCCN4)cc3)cc2)cc1
T/C [7]: 151 % of control | T/C [3]: 119 % of control | T/C [5]: 100 % of control
